This is an account of results in patent US12522598B2, “3-(2-(heteroaryl)-pyridin-4-yl)-5-(trifluoromethyl)-1,2,4-oxadiazole derivatives as HDAC6 inhibitors” (ORYZON GENOMICS, S.A., priority 2019, dated 2026).

The structures appear in SMILES notation. Structures can show the parent of a compound that is named as a salt.

The target of this assay is T1, HDAC6 (Homo sapiens, UniProt Q9UBN7).
T1 construct: purchased BPS Bioscience 50006
T1 sequence (Q9UBN7 1-1215): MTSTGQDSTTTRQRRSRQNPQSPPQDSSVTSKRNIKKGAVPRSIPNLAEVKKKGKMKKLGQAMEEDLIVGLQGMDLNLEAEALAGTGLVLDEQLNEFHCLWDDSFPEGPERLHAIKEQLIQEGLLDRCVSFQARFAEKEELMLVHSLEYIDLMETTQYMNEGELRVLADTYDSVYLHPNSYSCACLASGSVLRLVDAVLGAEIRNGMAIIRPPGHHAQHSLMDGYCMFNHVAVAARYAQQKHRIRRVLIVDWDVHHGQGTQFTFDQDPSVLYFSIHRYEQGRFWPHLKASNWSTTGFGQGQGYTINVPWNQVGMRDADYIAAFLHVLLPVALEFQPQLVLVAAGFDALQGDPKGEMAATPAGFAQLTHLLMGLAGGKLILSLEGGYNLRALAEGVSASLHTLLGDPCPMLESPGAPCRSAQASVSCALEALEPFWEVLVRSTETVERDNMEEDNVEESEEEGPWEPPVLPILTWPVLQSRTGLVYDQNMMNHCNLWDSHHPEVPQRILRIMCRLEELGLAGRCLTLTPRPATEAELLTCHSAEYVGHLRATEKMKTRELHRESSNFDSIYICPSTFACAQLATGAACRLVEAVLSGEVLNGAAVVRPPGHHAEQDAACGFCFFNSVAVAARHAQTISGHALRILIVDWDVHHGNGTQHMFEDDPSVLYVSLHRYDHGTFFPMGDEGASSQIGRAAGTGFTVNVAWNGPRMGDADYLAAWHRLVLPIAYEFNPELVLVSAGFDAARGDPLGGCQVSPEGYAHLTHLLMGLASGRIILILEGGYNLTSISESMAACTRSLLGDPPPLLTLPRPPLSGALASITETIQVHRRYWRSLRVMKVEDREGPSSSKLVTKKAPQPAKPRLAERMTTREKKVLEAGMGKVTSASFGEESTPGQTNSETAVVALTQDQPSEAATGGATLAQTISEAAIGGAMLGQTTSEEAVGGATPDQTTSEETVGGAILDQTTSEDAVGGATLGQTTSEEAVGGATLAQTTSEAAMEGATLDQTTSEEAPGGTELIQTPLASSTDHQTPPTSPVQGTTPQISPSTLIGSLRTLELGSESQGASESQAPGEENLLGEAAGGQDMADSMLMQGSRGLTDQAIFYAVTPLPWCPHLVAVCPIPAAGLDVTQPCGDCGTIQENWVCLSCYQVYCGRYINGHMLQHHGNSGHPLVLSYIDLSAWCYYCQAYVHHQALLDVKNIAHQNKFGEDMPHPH
In words: HDAC6 enzyme inhibition assay (fluorimetric). Type of assay: biochemical. As to conditions: 3 hours preincubation with enzyme, fraction of positive control; for inhibition at 0.1 µM: read-out: HDAC6 % inh @ 0.1 μM; for inhibition at 0.3 µM: read-out: HDAC6 % inh @ 0.3 μM; for inhibition at 1 µM: 1 μM test compound, read-out: HDAC6 % inh @ 1 μM. The procedure:
A fluorimetric assay was used to determine the biochemical activity of the inhibitors on HDAC6 in 96-Well Half Area Black Microplates (Corning #3686)+TopSeal-A Black Sealing Film (Perkin Elmer #6050173). Test compounds were dissolved in DMSO. Half-log serial dilutions of test compounds were prepared in DMSO and then diluted 1:10 in assay buffer (BPS Bioscience #50031).
2.5 μL of enzyme (BPS Bioscience #50006) was incubated with 2.5 μL of test compounds for 3 hours in assay buffer with 0.1 mg/mL Bovine Serum Albumin (Sigma-Aldrich #A7030) at 21° C. in 22.5 μL total volume. The enzymatic reaction was started with the addition of 2.5 μL of a fluorogenic acetylated peptide substrate (BPS Bioscience #50037). The final concentration of enzyme and substrate in the reaction were 8.8 nM and 9 μM, respectively. After 45 minutes of incubation at 37° C., the addition of 25 μL of a development solution (BPS
Bioscience #50030) releases a fluorophore whose amount is proportional to the amount of the deacetylated product. Fluorescence intensity was measured after 15 minutes incubation at 21° C. with a Tecan Infinite F200 microplate reader (excitation 360 nm-emission 460 nm).
The negative control (background) was represented by the reaction mix in the absence of the enzyme (with 0.1% DMSO), while the positive control of deacetylase activity was obtained in the absence of test compounds (with 0.1% DMSO) after background subtraction. Percentage of inhibition was calculated as a fraction of the positive control.

In the case of `COCCCn1nc(-c2cc(-c3noc(C(F)(F)F)n3)ccn2)c2ncccc21` [Example 1e, 3-(2-(1-(3-Methoxypropyl)-1H-pyrazolo[4,3-b]pyridin-3-yl)pyridin-4-yl)-5-(trifluoromethyl)-1,2,4-oxadiazole], the inhibition at 1 µM stood at 95%. The inhibition at 0.1 µM (0.1 μM test compound) came to 68%. The inhibition at 0.3 µM (0.3 μM test compound) was 88%.
Taken in the same sequence, the figures for `COCCN(C)C(=O)c1cc2cc(-c3cc(-c4noc(C(F)(F)F)n4)ccn3)ncc2n1C` [Example 2a, N-(2-Methoxyethyl)-N,1-dimethyl-5-(4-(5-(trifluoromethyl)-1,2,4-oxadiazol-3-yl)pyridin-2-yl)-1H-pyrrolo[2,3-c]pyridine-2-carboxamide hydrochloride] were 97%, 66% and 89%.
For `Cn1c(C(=O)N2CC[C@H](O)C2)cc2cc(-c3cc(-c4noc(C(F)(F)F)n4)ccn3)ncc21` [Example 2h, (S)-(3-Hydroxypyrrolidin-1-yl)(1-methyl-5-(4-(5-(trifluoromethyl)-1,2,4-oxadiazol-3-yl)pyridin-2-yl)-1H-pyrrolo[2,3-c]pyridin-2-yl)methanone hydrochloride], the inhibition at 1 µM turned out to be 94%. In addition, under “0.1 μM test compound”, the inhibition at 0.1 µM was found to be 65%. In addition, the inhibition at 0.3 µM (0.3 μM test compound) was 80%.
For `COCCn1nc(-c2cc(-c3noc(C(F)(F)F)n3)ccn2)c2nccc(Cl)c21` [Example 5, 3-(2-(7-Chloro-1-(2-methoxyethyl)-1H-pyrazolo[4,3-b]pyridin-3-yl)pyridin-4-yl)-5-(trifluoromethyl)-1,2,4-oxadiazole], in that order: 94%, 61% and 82%.
Turning to `COCCn1nc(-c2cc(-c3noc(C(F)(F)F)n3)ccn2)c2nccnc21` [Example 1g, 3-(2-(1-(2-Methoxyethyl)-1H-pyrazolo[3,4-b]pyrazin-3-yl)pyridin-4-yl)-5-(trifluoromethyl)-1,2,4-oxadiazole], the inhibition at 1 µM was 80%. Where the note is “0.1 μM test compound”, the inhibition at 0.1 µM came to 28%. In addition, the inhibition at 0.3 µM (0.3 μM test compound) was 56%.
In the case of `COCCN(CCOC)C(=O)c1cc2cc(-c3cc(-c4noc(C(F)(F)F)n4)ccn3)ncc2n1C` [Example 2c, N,N-Bis(2-methoxyethyl)-1-methyl-5-(4-(5-(trifluoromethyl)-1,2,4-oxadiazol-3-yl)pyridin-2-yl)-1H-pyrrolo[2,3-c]pyridine-2-carboxamide hydrochloride], the inhibition at 1 µM was determined as 97%. Moreover, for the setting “0.1 μM test compound”, the inhibition at 0.1 µM was 71%. The inhibition at 0.3 µM (0.3 μM test compound) was determined as 91%.
On to `CN1CCC(CN(C)C(=O)c2cc3cc(-c4cc(-c5noc(C(F)(F)F)n5)ccn4)ncc3n2C)CC1` [Example 1c, N,1-Dimethyl-N-((l-methylpiperidin-4-yl)methyl)-5-(4-(5-(trifluoromethyl)-1,2,4-oxadiazol-3-yl)pyridin-2-yl)-1H-pyrrolo[2,3-c]pyridine-2-carboxamide], for which the inhibition at 1 µM came to 98%. Where the note is “0.1 μM test compound”, the inhibition at 0.1 µM worked out at 85%. Further, for the setting “0.3 μM test compound”, the inhibition at 0.3 µM turned out to be 94%.
On to `CN(CC1CC1)C(=O)c1cc2cc(-c3cc(-c4noc(C(F)(F)F)n4)ccn3)ncc2n1C` [Example 2, N-(Cyclopropylmethyl)-N,1-dimethyl-5-(4-(5-(trifluoromethyl)-1,2,4-oxadiazol-3-yl)pyridin-2-yl)-1H-pyrrolo[2,3-c]pyridine-2-carboxamide hydrochloride], for which the inhibition at 1 µM was 96%. For the same molecule, where the note is “0.1 μM test compound”, the inhibition at 0.1 µM worked out at 75%. For the same molecule, for the setting “0.3 μM test compound”, the inhibition at 0.3 µM came to 92%.
For `CN(CCO)C(=O)c1cc2cc(-c3cc(-c4noc(C(F)(F)F)n4)ccn3)ncc2n1C` [Example 1b, N-(2-Hydroxyethyl)-N,1-dimethyl-5-(4-(5-(trifluoromethyl)-1,2,4-oxadiazol-3-yl)pyridin-2-yl)-1H-pyrrolo[2,3-c]pyridine-2-carboxamide], the inhibition at 1 µM came out at 95%. Also, the inhibition at 0.1 µM (0.1 μM test compound) is 72%. The inhibition at 0.3 µM (0.3 μM test compound) was 88%.
For the molecule `C[C@H]1COCCN1C(=O)c1cc2cc(-c3cc(-c4noc(C(F)(F)F)n4)ccn3)ncc2n1C` [Example 2d, (S)-(1-Methyl-5-(4-(5-(trifluoromethyl)-1,2,4-oxadiazol-3-yl)pyridin-2-yl)-1H-pyrrolo[2,3-c]pyridin-2-yl)(3-methylmorpholino)methanone hydrochloride], the inhibition at 1 µM turned out to be 96%. The inhibition at 0.1 µM (0.1 μM test compound) was 64%. Further, for the setting “0.3 μM test compound”, the inhibition at 0.3 µM was 86%.
Take `CN(C)CCCN(C)C(=O)c1cc2cc(-c3cc(-c4noc(C(F)(F)F)n4)ccn3)ncc2n1C` [Example 1a, N-(3-(Dimethylamino)propyl)-N,1-dimethyl-5-(4-(5-(trifluoromethyl)-1,2,4-oxadiazol-3-yl)pyridin-2-yl)-1H-pyrrolo[2,3-c]pyridine-2-carboxamide]: the inhibition at 0.1 µM (0.1 μM test compound) is 74%. In addition, the inhibition at 0.3 µM (0.3 μM test compound) is 91%.
On to `Cn1c(C(=O)N2CCC(O)C2)cc2cc(-c3cc(-c4noc(C(F)(F)F)n4)ccn3)ncc21` (stereo not shown) [Example 2e, (3-Hydroxypyrrolidin-1-yl)(1-methyl-5-(4-(5-(trifluoromethyl)-1,2,4-oxadiazol-3-yl)pyridin-2-yl)-1H-pyrrolo[2,3-c]pyridin-2-yl)methanone hydrochloride], for which the inhibition at 1 µM came out at 97%. For the setting “0.1 μM test compound”, the inhibition at 0.1 µM turned out to be 78%. In addition, the inhibition at 0.3 µM (0.3 μM test compound) worked out at 92%.
On to `Cn1c(C(=O)N2CCOCC2)cc2cc(-c3cc(-c4noc(C(F)(F)F)n4)ccn3)ncc21` [Example 1, (1-Methyl-5-(4-(5-(trifluoromethyl)-1,2,4-oxadiazol-3-yl)pyridin-2-yl)-1H-pyrrolo[2,3-c]pyridin-2-yl)(morpholino)methanone], for which the “HDAC6 % inh @ 0.1 μM” value (0.1 μM test compound) was determined as 59%. For the same molecule, the “HDAC6 % inh @ 0.3 μM” value (0.3 μM test compound) came out at 87%.
On to `Cn1c(C(=O)N2CCOCC2)cc2cc(-c3cc(-c4noc(C(F)(F)F)n4)ccn3)ncc21` [Example 3, (1-Methyl-5-(4-(5-(trifluoromethyl)-1,2,4-oxadiazol-3-yl)pyridin-2yl)-1H-pyrrolo[2,3-c]pyridin-2-yl)(morpholino)methanone mesylate], for which the inhibition at 1 µM turned out to be 93%. Further, the inhibition at 0.1 µM (0.1 μM test compound) is 59%. Besides, where the note is “0.3 μM test compound”, the inhibition at 0.3 µM came out at 84%.
For `Cn1c(C(=O)N2CCNCC2)cc2cc(-c3cc(-c4noc(C(F)(F)F)n4)ccn3)ncc21` [Example 4, (1-Methyl-5-(4-(5-(trifluoromethyl)-1,2,4-oxadiazol-3-yl)pyridin-2-yl)-1H-pyrrolo[2,3-c]pyridin-2-yl)(piperazin-1-yl)methanone], in that order: 95%, 69% and 86%.
As for `Cn1c(C(=O)N2CC[C@@H](O)C2)cc2cc(-c3cc(-c4noc(C(F)(F)F)n4)ccn3)ncc21` [Example 2g, (R)-(3-Hydroxypyrrolidin-1-yl)(1-methyl-5-(4-(5-(trifluoromethyl)-1,2,4-oxadiazol-3-yl)pyridin-2-yl)-1H-pyrrolo[2,3-c]pyridin-2-yl)methanone hydrochloride], the inhibition at 1 µM was 97%. Moreover, the inhibition at 0.1 µM (0.1 μM test compound) was found to be 78%. Moreover, the inhibition at 0.3 µM (0.3 μM test compound) came out at 86%.
